Measurements: paper PMC10098121, “Amphipathic barbiturates as marine product mimics with cytolytic and immunogenic effects on head and neck squamous cell carcinoma cell lines” (Frontiers in Pharmacology, 2023)

What was measured:
Format in all cases: cell-based, human
HSC-3 cells [1] = test: MTS viability assay with bafilomycin A1 and z-VAD-FMK; settings: HSC-3, 24 h; cisplatin 50 µM, MPM-2:0/MPM-6:0 5 µM, MPM-3:2/MPM-4:2 10 µM
Protocol: (§1) HSC-3 and UT-SCC-24A cells were seeded, 10,000 cells/well, in flat bottom 96-well plates and left to adhere overnight. The supernatants were then removed and replaced by 50 µl of complete DMEM/F-12 ± 100 nM BafA1 (#196000, Sigma-Aldrich, St. Louis, MO, United States) or 50 µM z-VAD-FMK (#219007, Sigma-Aldrich). The plate was then incubated for 1 hour before another 50 µl of complete DMEM/F-12 ± 100 nM BafA1 or 50 µM z-VAD-FMK as well as the MPMs or cisplatin was added. The final concentration of cisplatin was 50 µM and for the MPMs it was 5 or 10 µM for MPM-2:0 and MPM-6:0, and 10 or 20 µM for MPM-3:2 and MPM-4:2, for HSC-3 and UT-SCC-24A cells, respectively. 100 μl of media ± 1% Triton X-100 served as […]. The cells were incubated for 24 h before 20 µl of MTS reagent (CellTiter 96® Aqueous One Solution, Promega, Madison, WI, United States) was added to each well. The plate was then incubated for one more hour before absorbance was measured at 490 nm on a VersaMaxTM Microplate reader (Molecular Devices, San Jose, CA, United States). Viability was calculated using the following formula: %=Abs treated sample−Abs positive control/Abs negative control−Abs positive control x 100
(§2) At least three independent experiments were performed, with triplicate wells in each experiment.

UT-SCC-24A cells [2] = test: as above; settings: 24 h, cisplatin 50 µM, MPM-2:0/MPM-6:0 10 µM, MPM-3:2/MPM-4:2 20 µM
Protocol: as §1, §2

[3] = tested on: cell surface calreticulin on UT-SCC-24A cells; test: Flow cytometric detection of cell surface calreticulin; settings: 24 h, cisplatin 50 µM, MPMs 5-20 µM, vs untreated
Protocol: This procedure was based on a published method ([Liu et al., 2020]), but was performed with some modifications. Briefly, HSC-3 and UT-SCC-24A cells were seeded, 300,000 cells/well, in 6-well plates and left to adhere overnight. The media was then removed and replaced by 2 ml complete DMEM/F-12 containing 5, 7.5, 10 or 20 µM of MPM-2:0, MPM-6:0, MPM-3:2 or MPM-4:2, or 50 µM cisplatin. Some cells were left untreated. The cells were then incubated for 24 h. Next, the cell supernatants were collected before the cells were trypsinized and spun down with the supernatants. The cells were then washed in PBS before being incubated with the viability dye Zombie Violet (#423114, BioLegend, San Diego, CA, United States) diluted 1:500 in PBS for 20 min. Next, the cells were incubated with an anti-calreticulin antibody (#ab2907, Abcam) diluted 1:100 in FACS buffer (2%BSA in PBS) for 30 min. The cells were then fixed in 4% formaldehyde for 15 min and washed twice in FACS buffer before being incubated with the secondary antibody (#A11034, Thermo Fisher Scientific) diluted 1:250 in FACS buffer for 30 min. The cells were washed in FACS buffer and analyzed on a LSR Fortessa (BD Biosciences) within 1 week. Analyses were performed in FlowJo™ v.10 (https://www.flowjo.com/).

UT-SCC-24A cells [4] = test: Western blot for extracellular HMGB1; settings: 24 h, supernatant
Protocol: Detection of HMGB1 in the supernatant of MPM treated HSC-3 and UT-SCC-24A cells was performed as previously described ([von Hofsten et al., 2022]). Briefly, HSC-3 and UT-SCC-24A cells were seeded, 100,000 cells/well in 12-well plates and left to adhere overnight. The following day, the media was removed and replaced with media containing either 50 µM cisplatin, 5 or 10 µM MPM-2:0 or MPM-6:0, or 10 or 20 µM MPM-3:2 or MPM-4:2. The cells were incubated for 24 h before supernatants were collected and centrifuged to remove debris. Supernatant samples were mixed with DTT (final concentration 50 mM) and sample buffer before being boiled for 5 min and loaded on a NuPAGE® 10% Bis–Tris Gel (Thermo Fisher Scientific) before being electro-transferred to a polyvindiline dilfluoride (PVDF) immobilon-P membrane (Merck, Rahway, NJ, United States). The membrane was blocked for 1 h with 5% non-fat dry milk in TBST and then incubated overnight at 4°C with the primary antibody targeting HMGB1 (#ab18256, Abcam) diluted 1:1,000 in TBST 5% non-fat dry milk. Next, the membrane was washed three times in TBST and incubated with an HRP-conjugated goat anti-rabbit secondary antibody (#4050-05, Southern Biotech, Birmingham, AL, United States) diluted 1:2000 in TBST 5% non-fat dry milk at room temperature for 1 h. […]

HSC-3 cells [5] = test: Scratch wound migration assay; settings: for wound closure in migration assay (in words): HSC-3, 10 µM, 24 h; for wound closing at the lower concentrations (in words): HSC-3, 0.1 or 1 µM, text does not separate migration and invasion
Protocol: (§3) Two Incucyte image lock 96-well plates (#4379, Sartorius) were coated with 50 µl myogel (0.5 mg/ml) per well. The next day, the media remaining in the wells was removed before HSC-3 cells were seeded at a density of 25,000 cells/well in 100 µl. The cells were left to adhere, and the following day, a scratch was made in the middle of each well using the Incucyte 96-pin WoundMaker tool (Sartorius). The wells were then washed once with media. For the migration assay, the media in each well was then replaced with 100 µl of media containing 0.1, 1 or 10 µM of MPM-2:0 or MPM-4:2. For the invasion assay, the media was replaced by 50 µl of a gel consisting of serum-free media, myogel (2.4 mg/ml), type I rat tail collagen (0.8 mg/ml, Corning, NY, USA) and 0.1, 1 or 10 µM of MPM-2:0 or MPM-4:2. The plate was incubated at 37°C for 1 h to let the gel solidify. Next, 100 µl of media, also containing 0.1, 1 or 10 µM of MPM-2:0 or MPM-4:2 was added on top of the gel. Both the migration and invasion plates were placed in the Incucyte S3 (Sartorius) and imaged at ×10 magnification every 2 hours for 24 h in total. The Incucyte software was used to analyze the relative wound density.

HSC-3 cells [6] = test: Scratch wound invasion assay (myogel-collagen); settings: HSC-3, 10 µM, 24 h; control cells approximately 24 h
Protocol: as §3

## N.N.[Cl][Pt][Cl] [Cisplatin, cisplatin, reference compound]
HSC-3 cells [1]
  viability in the presence of BafA1 (100 nM) or z-VAD-FMK (50 µM) (in words): z-VAD-FMK seemed to have some protective effects against cisplatin for both cell lines, while BafA1 had the opposite effect
UT-SCC-24A cells [2]
  viability in the presence of BafA1 (100 nM) or z-VAD-FMK (50 µM) (in words): z-VAD-FMK seemed to have some protective effects against cisplatin for both cell lines, while BafA1 had the opposite effect
[3]
  cell surface expression of calreticulin (in words): did not induce any cell surface expression of calreticulin

## NCCN1C(=O)N(CCN)C(=O)C(CCCc2ccccc2)(CCCc2ccccc2)C1=O [MPM-2:0]
UT-SCC-24A cells [4]
  release of HMGB1 (in words): statistically significant
HSC-3 cells [5]
  wound closure in migration assay (in words): induced cell death so quickly that it was not possible to study the effect on migration or invasion
  wound closing at the lower concentrations (in words): trend towards faster wound closing
HSC-3 cells [6]
  wound closure in invasion assay (in words): induced cell death so quickly that it was not possible to study the effect on migration or invasion

## CN(C)CCCCN1C(=O)N(CCCCN(C)C)C(=O)C(CCCc2ccccc2)(CCCc2ccccc2)C1=O [MPM-4:2]
HSC-3 cells [5]
  wound closure in migration assay (in words): required more time to close the wound
  wound closing at the lower concentrations (in words): trend towards faster wound closing
HSC-3 cells [6]
  wound closure in invasion assay (in words): never managed to close the wound

## NCCCCCCN1C(=O)N(CCCCCCN)C(=O)C(CCCc2ccccc2)(CCCc2ccccc2)C1=O [MPM-6:0]
HSC-3 cells [1]
  viability in the presence of BafA1 (100 nM) or z-VAD-FMK (50 µM) (in words): z-VAD-FMK increase viability more than BafA1
[3]
  cell surface expression of calreticulin (in words): statistically significant levels of cell surface calreticulin
UT-SCC-24A cells [4]
  release of HMGB1 (in words): statistically significant
